Measurements taken from ChEMBL document CHEMBL1201862, “PubChem BioAssay data set” (2004).
Blank lines part the entries; values can stand above or below the compound they belong to. Active and inactive are the calls of the source.

Experiments:
[1] = target: NADPH oxidase 1 (Homo sapiens, UniProt Q9Y5S8); format: functional, cell-based;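 further: Cell-based assay with luminescence read-out, IC50 derived from inhibitor dose-response curves; intracellular ROS from endogenous NOX1 in intact HT29 colon cancer cells; potency of inhibitors that lower the ROS luminescence signal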
Sequence of NADPH oxidase 1 (Q9Y5S8 whole entry): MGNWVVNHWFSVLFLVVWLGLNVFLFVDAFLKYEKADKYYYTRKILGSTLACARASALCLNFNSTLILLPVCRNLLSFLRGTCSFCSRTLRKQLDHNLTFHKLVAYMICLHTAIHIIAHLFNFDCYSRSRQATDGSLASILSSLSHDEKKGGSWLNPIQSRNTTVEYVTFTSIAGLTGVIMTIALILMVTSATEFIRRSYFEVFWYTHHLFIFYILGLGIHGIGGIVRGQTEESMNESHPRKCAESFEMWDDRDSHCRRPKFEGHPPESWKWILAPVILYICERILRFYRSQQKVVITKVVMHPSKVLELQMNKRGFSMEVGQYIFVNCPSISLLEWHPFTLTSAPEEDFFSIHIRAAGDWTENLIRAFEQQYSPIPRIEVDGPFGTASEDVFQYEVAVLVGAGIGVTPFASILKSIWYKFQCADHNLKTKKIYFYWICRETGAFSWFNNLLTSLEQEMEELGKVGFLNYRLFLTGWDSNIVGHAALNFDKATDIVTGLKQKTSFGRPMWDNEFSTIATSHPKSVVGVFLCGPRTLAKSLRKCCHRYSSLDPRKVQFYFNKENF

[2] = target: Neurotensin receptor type 1 (Homo sapiens, UniProt P30989); format: functional;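 further: Image-based confirmatory dose-response assay measuring agonist activity at NTR1; NTR1-expressing U2OS osteosarcoma cells imaged for beta-arrestin GFP spot formation; agonist potency where compounds increase beta-arrestin recruitment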
Sequence of Neurotensin receptor type 1 (P30989 whole entry): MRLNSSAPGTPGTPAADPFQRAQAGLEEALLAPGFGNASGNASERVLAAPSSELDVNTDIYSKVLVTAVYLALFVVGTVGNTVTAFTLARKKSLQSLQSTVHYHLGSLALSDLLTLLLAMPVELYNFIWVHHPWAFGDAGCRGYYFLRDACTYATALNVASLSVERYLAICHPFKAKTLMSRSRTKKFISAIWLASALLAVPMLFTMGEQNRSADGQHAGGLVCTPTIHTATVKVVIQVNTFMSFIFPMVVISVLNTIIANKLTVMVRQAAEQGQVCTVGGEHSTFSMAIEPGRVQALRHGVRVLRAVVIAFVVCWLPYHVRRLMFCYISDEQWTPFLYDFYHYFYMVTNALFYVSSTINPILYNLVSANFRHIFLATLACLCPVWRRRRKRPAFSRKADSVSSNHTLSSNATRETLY

[3] = target: T1, Microphthalmia-associated transcription factor (Homo sapiens, UniProt O75030); assay: reducers of TRPM1 reporter luminescence, concentration series – cell-based, SK-MEL-5, cherry-picked, set 3, MITF inhibitor project, dose response (AID 493073); format: functional;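 further: SK-MEL-5 melanoma cells with luciferase driven by the MITF target TRPM1 promoter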
T1 sequence (O75030 whole entry): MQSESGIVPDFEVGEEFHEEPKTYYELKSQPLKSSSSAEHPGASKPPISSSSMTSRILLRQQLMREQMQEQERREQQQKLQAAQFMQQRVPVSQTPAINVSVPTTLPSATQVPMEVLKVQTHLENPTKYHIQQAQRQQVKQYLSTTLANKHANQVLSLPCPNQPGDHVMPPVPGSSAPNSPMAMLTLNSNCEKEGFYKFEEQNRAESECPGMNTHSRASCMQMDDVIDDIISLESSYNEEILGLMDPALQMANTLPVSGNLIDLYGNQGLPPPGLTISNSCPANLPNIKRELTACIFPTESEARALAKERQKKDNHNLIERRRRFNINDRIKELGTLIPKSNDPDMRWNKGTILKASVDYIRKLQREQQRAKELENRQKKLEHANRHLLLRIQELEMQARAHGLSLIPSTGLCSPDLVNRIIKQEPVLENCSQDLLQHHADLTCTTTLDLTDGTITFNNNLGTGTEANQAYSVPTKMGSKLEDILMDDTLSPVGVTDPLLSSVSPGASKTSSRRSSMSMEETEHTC

[4] = target: T2, Neuropeptides B/W receptor type 1 (Homo sapiens, UniProt P48145); assay: Fluorescence-based dose response cell-based high throughput screening assay to identify antagonists of the G-protein coupled receptor 7 (GPR7). [Related pubchem assays: 1952 (Screening assay (GPR7 antagonists).), 1880 (Summary AID.)]; format: functional
T2 sequence (P48145 whole entry): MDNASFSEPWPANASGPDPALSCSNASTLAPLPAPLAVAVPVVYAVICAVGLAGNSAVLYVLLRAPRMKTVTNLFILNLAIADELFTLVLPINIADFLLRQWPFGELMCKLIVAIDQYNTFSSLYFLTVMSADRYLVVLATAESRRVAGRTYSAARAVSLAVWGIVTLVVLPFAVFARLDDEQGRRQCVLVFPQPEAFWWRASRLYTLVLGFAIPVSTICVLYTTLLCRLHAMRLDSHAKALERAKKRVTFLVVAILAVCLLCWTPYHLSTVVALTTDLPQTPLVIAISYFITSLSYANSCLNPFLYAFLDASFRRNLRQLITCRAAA

[5] = target: Melanin-concentrating hormone receptor 1 (Homo sapiens, UniProt Q99705); assay: Fluorescence-based counterscreen for antagonists of the G-protein coupled receptor 7 (GPR7): cell-based high throughput dose response assay to identify antagonists of the melanin-concentrating hormone receptor 1 (MCHR1).; format: functional
Sequence of Melanin-concentrating hormone receptor 1 (Q99705 whole entry): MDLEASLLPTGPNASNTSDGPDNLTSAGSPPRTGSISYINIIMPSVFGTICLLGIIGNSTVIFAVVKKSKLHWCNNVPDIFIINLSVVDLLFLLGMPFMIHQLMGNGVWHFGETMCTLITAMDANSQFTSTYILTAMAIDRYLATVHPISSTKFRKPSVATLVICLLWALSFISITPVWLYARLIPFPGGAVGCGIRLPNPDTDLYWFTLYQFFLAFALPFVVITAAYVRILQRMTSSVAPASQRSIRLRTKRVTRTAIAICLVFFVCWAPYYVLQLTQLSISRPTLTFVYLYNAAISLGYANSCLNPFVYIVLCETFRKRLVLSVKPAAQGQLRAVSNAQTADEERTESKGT

[6] = target: Acyl-homoserine lactone acylase PvdQ (Pseudomonas aeruginosa (strain LESB58), UniProt Q9I194); assay: PvdQ acylase enzyme activity blockers – biochemical, fluorescence, plate reader and imaging, cherry-picks, dose response (AID 493231)
Sequence of Acyl-homoserine lactone acylase PvdQ (Q9I194 24-193 limits assumed): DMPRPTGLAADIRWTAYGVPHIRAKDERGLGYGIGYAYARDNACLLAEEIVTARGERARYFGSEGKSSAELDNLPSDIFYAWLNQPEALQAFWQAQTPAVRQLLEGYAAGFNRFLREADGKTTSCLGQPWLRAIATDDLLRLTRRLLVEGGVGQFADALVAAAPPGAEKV
Sequence of Acyl-homoserine lactone acylase PvdQ (Q9I194 217-762 limits assumed): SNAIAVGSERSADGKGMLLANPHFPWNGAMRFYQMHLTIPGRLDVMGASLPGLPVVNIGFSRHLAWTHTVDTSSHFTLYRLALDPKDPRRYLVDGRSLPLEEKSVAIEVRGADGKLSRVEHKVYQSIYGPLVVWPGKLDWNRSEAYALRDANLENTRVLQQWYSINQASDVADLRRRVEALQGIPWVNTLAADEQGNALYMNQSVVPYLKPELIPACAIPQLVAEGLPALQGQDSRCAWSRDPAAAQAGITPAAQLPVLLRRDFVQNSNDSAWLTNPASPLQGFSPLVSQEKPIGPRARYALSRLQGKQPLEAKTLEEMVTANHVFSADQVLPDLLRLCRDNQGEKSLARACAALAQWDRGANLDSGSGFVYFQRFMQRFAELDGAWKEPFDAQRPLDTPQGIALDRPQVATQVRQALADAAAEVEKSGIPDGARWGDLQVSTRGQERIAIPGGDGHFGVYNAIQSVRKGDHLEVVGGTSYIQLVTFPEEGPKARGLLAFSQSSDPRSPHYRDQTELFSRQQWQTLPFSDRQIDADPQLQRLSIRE

[7] = target: T3, Bcl-2-related protein A1 (Mus musculus, UniProt Q07440); assay: small-molecule antagonists of Bfl-1/BH3 interaction – biochemical, TR-FRET, mouse Bfl-1, confirmation (AID 621);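 further: TR-FRET binding of GST-Bfl-1 to FITC-labelled Bid peptide via terbium antibody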
T3 sequence (Q07440 whole entry): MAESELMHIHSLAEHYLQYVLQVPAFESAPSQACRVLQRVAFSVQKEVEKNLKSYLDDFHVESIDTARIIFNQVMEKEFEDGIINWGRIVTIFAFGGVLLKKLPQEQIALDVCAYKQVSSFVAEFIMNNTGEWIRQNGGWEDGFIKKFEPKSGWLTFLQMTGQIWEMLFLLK

[8] = target: Glyceraldehyde-3-phosphate dehydrogenase (Homo sapiens, UniProt P04406)
Sequence of Glyceraldehyde-3-phosphate dehydrogenase (P04406 whole entry): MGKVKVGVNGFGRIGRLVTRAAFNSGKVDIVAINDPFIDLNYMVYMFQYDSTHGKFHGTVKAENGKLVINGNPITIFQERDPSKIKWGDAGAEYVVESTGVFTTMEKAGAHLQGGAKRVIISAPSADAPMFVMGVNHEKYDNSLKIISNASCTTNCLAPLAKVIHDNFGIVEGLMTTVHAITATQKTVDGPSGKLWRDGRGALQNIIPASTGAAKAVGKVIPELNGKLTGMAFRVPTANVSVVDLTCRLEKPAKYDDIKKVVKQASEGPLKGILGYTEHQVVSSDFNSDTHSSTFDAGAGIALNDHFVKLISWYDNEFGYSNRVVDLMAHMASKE

[9] = target: T3, Bcl-2-related protein A1; assay: Bfl-1 binding inhibitors, SAR follow-up, biochemical, fluorescence polarization (AID 1070)
[10] = antiviral protection against BTV-induced cell death – arbovirus, BSR cells, confirmation (AID 1250); format: functional;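 further: protection from viral cytopathic effect measured as cell viability by ATP luminescence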
[11] = target: Luciferin 4-monooxygenase (Photinus pyralis, UniProt P08659); assay: Counter Screen for Luciferase-based Assay Positives. [Related pubchem assays: 620, 618, 411 ]
Sequence of Luciferin 4-monooxygenase (P08659 whole entry): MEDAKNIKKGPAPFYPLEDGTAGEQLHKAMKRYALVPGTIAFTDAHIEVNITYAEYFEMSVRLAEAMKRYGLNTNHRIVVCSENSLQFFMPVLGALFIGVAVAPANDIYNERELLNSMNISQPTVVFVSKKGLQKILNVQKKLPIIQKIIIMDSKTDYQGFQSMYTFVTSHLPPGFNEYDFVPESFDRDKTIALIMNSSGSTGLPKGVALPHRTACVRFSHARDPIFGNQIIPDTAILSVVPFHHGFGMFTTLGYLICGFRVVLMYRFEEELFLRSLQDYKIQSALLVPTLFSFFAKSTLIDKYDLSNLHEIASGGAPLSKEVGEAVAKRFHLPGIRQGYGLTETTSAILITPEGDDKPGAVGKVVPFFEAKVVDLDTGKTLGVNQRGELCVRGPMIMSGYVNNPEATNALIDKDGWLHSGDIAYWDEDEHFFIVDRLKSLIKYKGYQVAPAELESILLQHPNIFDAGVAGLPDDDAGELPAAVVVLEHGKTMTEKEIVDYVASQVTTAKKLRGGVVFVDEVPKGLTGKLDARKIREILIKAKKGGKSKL

[12] = system: HT-1080; assay: HT1080 cell viability loss – fluorescence readout (AID 620); format: functional, cell-based; details: Homo sapiens
[13] = target: T4, Estrogen receptor (Homo sapiens, UniProt P03372); assay: ERα coactivator recruitment enhancers – biochemical, TR-FRET, ERα LBD, dose response (AID 737)
T4 sequence (P03372 whole entry): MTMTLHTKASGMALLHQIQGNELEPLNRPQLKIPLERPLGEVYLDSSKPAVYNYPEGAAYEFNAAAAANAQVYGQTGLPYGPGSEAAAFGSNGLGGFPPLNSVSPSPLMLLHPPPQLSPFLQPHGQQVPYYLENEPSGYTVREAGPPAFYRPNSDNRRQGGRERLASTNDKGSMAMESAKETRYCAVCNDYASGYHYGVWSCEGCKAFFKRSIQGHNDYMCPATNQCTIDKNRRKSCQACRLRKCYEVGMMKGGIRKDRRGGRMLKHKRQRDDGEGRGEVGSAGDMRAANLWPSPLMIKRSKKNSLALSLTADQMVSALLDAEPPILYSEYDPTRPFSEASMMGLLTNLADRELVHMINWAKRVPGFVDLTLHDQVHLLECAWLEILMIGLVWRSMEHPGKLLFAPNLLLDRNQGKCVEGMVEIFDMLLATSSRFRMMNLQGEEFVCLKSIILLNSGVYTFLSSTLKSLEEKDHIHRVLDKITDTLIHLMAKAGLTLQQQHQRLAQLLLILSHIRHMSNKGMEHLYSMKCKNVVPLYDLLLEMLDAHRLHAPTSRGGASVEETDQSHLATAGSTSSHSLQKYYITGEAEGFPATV

[14] = target: T5, Neuropeptide Y receptor type 1 (Homo sapiens, UniProt P25929); format: functional;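 further: HEK293 cells with a CNG channel challenged with NPY then isoproterenol; potency as antagonist that reverses NPY suppression of cAMP signal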
T5 sequence (P25929 whole entry): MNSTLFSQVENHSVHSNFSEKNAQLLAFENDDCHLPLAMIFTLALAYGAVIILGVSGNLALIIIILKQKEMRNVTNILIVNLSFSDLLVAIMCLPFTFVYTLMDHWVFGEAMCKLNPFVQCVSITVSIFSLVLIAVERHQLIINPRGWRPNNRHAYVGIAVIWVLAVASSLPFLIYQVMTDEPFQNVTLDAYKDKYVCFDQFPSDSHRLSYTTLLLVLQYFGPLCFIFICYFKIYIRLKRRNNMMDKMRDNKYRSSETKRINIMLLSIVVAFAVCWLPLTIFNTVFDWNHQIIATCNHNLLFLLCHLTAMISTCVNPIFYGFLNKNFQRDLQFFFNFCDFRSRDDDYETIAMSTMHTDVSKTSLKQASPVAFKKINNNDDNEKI

[15] = target: T6, Heat shock factor protein 1 (Mus musculus, UniProt P38532); assay: decrease of HSF1-responsive luciferase luminescence – cell-based, NIH3T3, dose retest, confirmation (AID 2382); format: functional;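 further: NIH3T3 fibroblasts with HSF1-driven luciferase reporter stressed by proteasome inhibitor MG132; luminescence from HSF1-driven luciferase expression after 8 hours of MG132 stress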
T6 sequence (P38532 whole entry): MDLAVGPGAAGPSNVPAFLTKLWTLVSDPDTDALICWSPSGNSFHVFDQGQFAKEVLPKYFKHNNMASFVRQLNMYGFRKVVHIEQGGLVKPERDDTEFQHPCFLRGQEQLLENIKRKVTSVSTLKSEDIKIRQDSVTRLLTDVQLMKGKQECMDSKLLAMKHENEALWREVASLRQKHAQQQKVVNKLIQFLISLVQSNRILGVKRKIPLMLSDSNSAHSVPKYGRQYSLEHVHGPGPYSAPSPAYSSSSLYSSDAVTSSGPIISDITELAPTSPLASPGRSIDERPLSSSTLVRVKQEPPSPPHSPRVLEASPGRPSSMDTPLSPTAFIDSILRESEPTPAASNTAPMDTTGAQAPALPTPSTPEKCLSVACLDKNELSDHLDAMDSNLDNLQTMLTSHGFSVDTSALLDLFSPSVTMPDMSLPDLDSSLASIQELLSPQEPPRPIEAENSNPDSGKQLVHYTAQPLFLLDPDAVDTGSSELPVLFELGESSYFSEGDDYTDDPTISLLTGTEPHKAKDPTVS

[16] = target: T5, Neuropeptide Y receptor type 1; assay: IC50 of human NPY-Y1 blockers – cell-based, dose response (AID 1277); format: functional
[17] = target: T7, Neuropeptide Y receptor type 2 (Homo sapiens, UniProt P49146); assay: IC50 for human NPY-Y2 blockade – cell-based, counter-screen for NPY-Y1 antagonist project, dose response (AID 1278); format: functional
T7 sequence (P49146 whole entry): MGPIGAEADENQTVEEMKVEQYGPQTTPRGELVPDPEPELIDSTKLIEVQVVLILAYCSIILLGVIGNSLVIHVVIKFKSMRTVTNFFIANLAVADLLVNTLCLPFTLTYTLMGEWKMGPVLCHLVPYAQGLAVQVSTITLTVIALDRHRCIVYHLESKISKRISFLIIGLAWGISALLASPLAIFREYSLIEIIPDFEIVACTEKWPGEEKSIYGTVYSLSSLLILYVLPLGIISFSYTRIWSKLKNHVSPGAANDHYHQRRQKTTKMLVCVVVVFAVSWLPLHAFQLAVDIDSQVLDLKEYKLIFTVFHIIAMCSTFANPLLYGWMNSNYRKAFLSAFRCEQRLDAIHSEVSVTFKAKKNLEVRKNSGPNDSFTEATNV

[18] = system: INS1; assay: INS-1E survival protection against cytokine death – cell-based, luminescence, retest, dose response (AID 449756); format: functional; details: Rattus norvegicus;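 further: cell death triggered by IL-1 beta plus TNF-alpha plus IFN-gamma mixture; protective hits raise ATP signal compared with cytokine alone wells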
[19] = HEK-293T cell viability reduction – luminescence, B-cell screen hits, cytotoxicity control for BCR NF-kB inhibitor project, dose response (AID 489021); format: functional, cell-based;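 further: HEK-293T cells carrying an NF-kB luciferase reporter; cells exposed to compound for about 14 hours before viability readout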
[20] = NIH-3T3 fibroblast cytotoxicity, dose response, cytotoxicity control, cell-based, fluorescence, Alamar Blue, secondary assay (AID 2327); format: functional;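 further: NIH-3T3 mouse fibroblasts cultured with fluconazole at 8 µg/mL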
[21] = fluconazole-exposed Candida albicans growth modulators – fluorescence, retest, confirmation (AID 2467); format: functional, cell-based
[22] = target: Estrogen receptor beta (Homo sapiens, UniProt Q92731);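 further: recombinant ER-beta bound to coactivator SRC1 peptide in presence of estradiol agonist; inhibitors block coactivator peptide binding and lower the FRET signal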
Sequence of Estrogen receptor beta (Q92731 whole entry): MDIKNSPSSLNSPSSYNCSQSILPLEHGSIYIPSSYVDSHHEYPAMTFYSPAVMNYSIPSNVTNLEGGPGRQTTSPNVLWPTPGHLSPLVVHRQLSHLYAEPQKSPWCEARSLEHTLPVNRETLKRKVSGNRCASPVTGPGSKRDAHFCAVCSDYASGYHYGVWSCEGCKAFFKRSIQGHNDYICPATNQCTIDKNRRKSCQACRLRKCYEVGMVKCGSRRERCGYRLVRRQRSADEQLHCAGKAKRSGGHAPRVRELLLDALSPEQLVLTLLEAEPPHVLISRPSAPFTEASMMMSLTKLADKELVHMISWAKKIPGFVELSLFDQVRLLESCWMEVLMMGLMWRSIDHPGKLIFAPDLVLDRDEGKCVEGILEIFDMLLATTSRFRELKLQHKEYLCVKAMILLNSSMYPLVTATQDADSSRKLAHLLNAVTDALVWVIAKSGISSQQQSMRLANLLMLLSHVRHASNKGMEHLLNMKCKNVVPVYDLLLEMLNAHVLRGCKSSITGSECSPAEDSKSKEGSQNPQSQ

[23] = viability loss in human Jurkat cells – cell-based, luminescence, cytotoxicity control for P. falciparum gametocyte viability project, dose response (AID 1117277); format: functional;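 further: potency reflects loss of cellular ATP meaning fewer viable cells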
[24] = viability inhibitors of stage V gametocytes – luminescence, dose response (AID 1117278); format: functional, cell-based;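 further: gametocytes exposed to compound for 24 hours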
[25] = system: Streptococcus sp. 'group A'; assay: Streptococcus pyogenes SK(-)GAS viability under kanamycin – luminescence, BacTiterGlo, confirmation, counter-screen for streptokinase expression inhibitor project, dose response (AID 1900); format: functional, organism-based
[26] = system: Streptococcus; assay: GAS UMAA2166 growth inhibition – luminescence, BacTiterGlo, counter-screen for streptokinase expression inhibitor project, dose response (AID 1915); format: functional, organism-based;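 further: potency for reduction of bacterial viability or growth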
[27] = Luminescence-based counterscreen assay for KLF5 inhibitors: dose response cell-based high throughput screening assay to identify cytotoxic compounds using the IEC-6 intestinal epithelial cell line. [Related pubchem assays: 1700 (Primary screen.), 1834 (Confirmation screen.), 1858 (Summary AID.), 1905 (Counterscreen.)]; format: functional

SMILES: O=[N+]([O-])c1cc(O/N=C/c2ccccc2)cc([N+](=O)[O-])c1
IC50 [1]: > 17 µM (not active)

SMILES: CCOC(=O)c1ccc(NC(=O)c2ccc(C)c(S(=O)(=O)N3CCOCC3)c2)cc1
EC50 [2]: 17.3 µM (active)
AC50 [3]: 5.36 µM (active)

SMILES: FC(F)(F)Oc1ccc(/C=N/Nc2c(Cl)cncc2Cl)cc1
IC50 [1]: > 17 µM (not active)

SMILES: Fc1ccc(CNCc2cccc(Br)c2)cc1
AC50 [6]: 30.2 µM (active)

SMILES: COc1cccc(N2CCN(C3=C(Cl)C(=O)N(c4ccc(Cl)c(Cl)c4)C3=O)CC2)c1
IC50 [7]: 4.83 µM (active)
IC50 [8]: > 100 µM (not active)
IC50 [9]: 1.26 µM (active)

SMILES: C=CCn1c(SCc2c(C)noc2C)nnc1C1COc2ccccc2O1 (configuration not stated)
IC50 [10]: 24.7 µM (active)

SMILES: COc1ccc(C(=O)Nc2ccc3c(c2)OCCO3)cc1
EC50 [11]: < 0.2 µM (active)
EC50 [12]: > 50 µM (not active)

SMILES: Cc1cccc(CSCCNC(=O)COc2ccc(Cl)cc2)c1
IC50 [14]: 13.3 µM (not active)
EC50 [15]: > 195 µM (not active)

SMILES: Cc1ccc(-[n+]2c(-c3ccccc3)cn3c2CCc2ccccc2-3)c(C)c1
AC50 [18]: 1.91 µM (active)
IC50 [16]: 3.65 µM (active)
IC50 [19]: > 80 µM (inactive)
IC50 [17]: 5.9 µM (active)
EC50 [20]: 96.9 µM (active)
EC50 [21]: 1.24 µM (active)

SMILES: COC(=O)c1c(-c2ccncc2)csc1NC(=O)c1ccoc1C
IC50 [23]: > 83.3 µM (inactive)
EC50 [13]: 23.1 µM (active)
IC50 [24]: > 109 µM (inactive)

SMILES: COc1cccc(/C=N/NC(=O)c2cc3c(OC)ccc(OC)c3[nH]2)c1O
AC50 [18]: 4.13 µM (active)
EC50 [25]: 1.23 µM (active)
EC50 [26]: 3.31 µM (active)
IC50 [27]: 16.3 µM (not active)

SMILES: COc1ccc(S(=O)(=O)N2CCN(c3ccccc3OC)CC2)cc1OC
IC50 [10]: 23.3 µM (active)

Next, values leading:

IC50 [4]: 13.4 µM (not active)
IC50 [5]: > 43.8 µM (not active)
SMILES: CN(C(=O)CN1C(=O)C2C3CC(C(Br)C3Br)C2C1=O)C1CCCCC1 (configuration not stated)

IC50 [7]: 8.29 µM (active)
IC50 [8]: > 100 µM (not active)
IC50 [9]: 15.9 µM (active)
SMILES: C[C@@H]1CN(C2=C(Cl)C(=O)N(c3ccc(Cl)c(Cl)c3)C2=O)[C@@H](C)CN1

EC50 [13]: 12.9 µM (active)
SMILES: COc1ccc(-c2ccc(-c3noc(-c4cccs4)n3)c(OC)n2)cc1

IC50 [16]: 12.3 µM (not active)
IC50 [17]: > 35 µM (not active)
SMILES: CCC(C)(C(=O)NC1CCCCC1)N(Cc1ccco1)C(=O)Cc1cccs1 (configuration not stated)

IC50 [22]: > 50 µM (not active)
SMILES: CCCNc1nc(N2CCOCC2)nc(N2CCOCC2)n1

IC50 [22]: > 50 µM (not active)
SMILES: O=C1Nc2ccccc2C12OCCS2 (configuration not stated)
